Assay results reported in patent publication US20030013764A1, “Use for a pyruvate dehydrogenase activator for the treatment of ischaemia in limbs” (priority 1995, published 2003).

Assays:
volunteers = conditions: cited from earlier work
angina patients = conditions: cited from earlier work
[1] = system: contracting skeletal muscle of anaesthetised dogs; assay: Muscle fatigue in contracting gracilis muscle of anaesthetised dogs; assay type: in vivo, Beagle dogs; conditions: following treatment with DCA (300 mg.kg−1 as sodium salt, infusion 45 min before contraction); 20 min stimulation at 3 Hz; fatigue=(peak tension—end tension)/peak tension
Protocol: The invention will now be further described by reference to the accompanying, non-limiting, experimental methods. In the following expermimental methods we have used the PDH kinase inhibitor dichloroacetate to determine if inhibitors of PDH kinase can reduce the rate of fatigue in contracting skeletal muscle of anaesthetised dogs which has blood flow limited to the same extent as patients with intermittent claudication. Suitable doses of DCA include these in the range 30 to 300 mg.kg^−1. In the experimental methods which follow DCA was administered (at a dose of 300 mg.kg^−1) as the sodium salt of dichloroacetic acid.
Female Alderley Park Beagle dogs (12-18 kg) were pre-medicated with morphine (10 mg, i.m.) 30 minutes prior to induction of anaesthesia with sodium pentobarbitone (45 mg kg-1 i.v., Sagatal.). […] Rectal temperature was constantly monitored and maintained (range 36.2° C.-38.6° C.) with a homeothermic heating blanket (Harvard Instruments, Edenbridge. Kent. UK).
The left external jugular vein was cannulated for continuous administration of anaesthetic (sodium pentobarbitone 12 mg/ml at a rate of5 -6 ml/hour) using an infusion pump (injectomat S. Fresenius. Villiers. France). […] All pressures were measured using strain gauge manometers (PDCR 75. Druck Ltd. Barendeecht. Netherlands) attached to d.c. bridle amplifiers (Lectromed. MT8P. St. Peter. Jersey). […]

normal mice = conditions: cited from earlier work
gracilis muscle = assay: Muscle metabolites in gracilis muscle biopsies of anaesthetised dogs; assay type: in vivo, Beagle dogs; design: Lactate / Ac.carn. (acetyl carnitine) / Free carnitine: unit not given here; conditions: for Ac.carn. (acetyl carnitine) / Free carnitine / Lactate / PCr (phosphocreatine): DCA treated
Protocol: Animals were divided into DCA treated and vehicle (isotonic saline) treated groups. DCA or vehicle was given after completion of the surgery by a constant infusion. 45 minutes later the contraction was started. Muscle fatigue was measured in both normal and flow limited muscles. Arterial blood samples were taken from the brachial artery and venous blood samples were taken from each gracilis muscle at rest, during contraction and following recovery. The contraction period was 20 minutes of stimulation of 3 Hz. Blood samples (0.4 ml) being taken for blood gas analysis and analysed immediately. Parameters recorded were pH, pCO2. pO2. oxygen saturation and total Haemoglobin. Further samples (1.0 ml) were taken for analysis of lactate, glucose and non esterified fatty acid (NEFA) concentration.
Following resting blood samples and after drug/vehicle infusion a resting muscle biopsy (6 mm diameter Bergstrom needle. Stille, Sweden and 6 mm diameter Allendale needle, Edinburgh, Scotland), was taken from each muscle. After 20 minutes of stimulation the muscle was then freeze clamped, while still being stimulated, and a thin portion of muscle was excised and frozen in liquid nitrogen (The whole process took less than 6 seconds with the top layer of muscle being frozen within 1 second). The muscle samples were then stored in liquid nitrogen before a portion was freeze dried and analysed.
The muscle sample was divided into two portions, one for analysis of ATP, phosphocreatine (PCr), creatine (Cr) and intramuscular lactate (Harris. R et al., Scand. Journal Clin Lab Invest.. 33,109-120, 1974). The other portion of muscle was stored wet in liquid nitrogen. Briefly, the first portion of muscle was freeze dried, dissected free of visible connective tissue and blood and then powdered and was extracted in ice cold perchloric acid (0.5M) and neutralised with potassium bicarbonate (2.2M). Glycogen content was assayed using the method described by Harris et al. 1974 (see above).
Acetylcarnitine, free carnitine were assessed, in the freeze dried extract, by the method described by Cederblad et al; Anal. Biochem., 185, (1990), 274-278. PDH activity (rest & exercise, active and total) from a sample of wet tissue using the method of Constantin-Teodosiu D et al.. “A sensitive radioisotopic assay of pyruvate dehydrogenase complex in human muscle tissue”. Anal. Biochem.. Volume 198, p347-351. 1991. This method is also described by Dumitru Constantin-Teodosiu. Doctoral Thesis “Regulation of pyruvate dehydrgenase complex activity and acetyl group formation in skeletal muscle during exercise”. Stockholm 1992. from the Department of Clinical Chemistry, Karolinska Institute. Huddinge University Hospital. S-141 86 Huddinge Sweden.

[2] = system: patients with class III heart failure; conditions: human, in vivo; cited from earlier work
[3] = angina patients undergoing catheterisation
[4] = Normal flow muscle after 20 min stimulation
[5] = Resricted flow muscle after 20 min stimulation

O=C(O)C(Cl)Cl [DCA, dichloroacetic acid]
reduction of lactate production (volunteers; volunteers during maximal and 50% maximal workload): up to 30% | increase in maximal work capacity (volunteers; volunteers): 10% | changes in heart rate or left ventricular inotropic state (LV dp/dtmax.) (angina patients; [3]): absence of changes | increase in stroke volume (angina patients; [3]): 13% | Myocardial efficiency (angina patients; angina patients, increased from 24%): 32% | muscle fatigue [1]: 25.0% | increase in treadmill exercise duration (normal mice): 20% | oxidation of lactate (normal mice): increased | Changes in Pcr (gracilis muscle; DCA treated versus control): reduced | Changes in lactate (gracilis muscle; DCA treated versus control): reduced | Ac.carn. (acetyl carnitine) (gracilis muscle; [4]): 9.6 ± 3.2 | Free carnitine (gracilis muscle; [4]): 15.5 ± 2.5 | Lactate (gracilis muscle; [4]): 5.4 ± 1.6 | PCr (phosphocreatine) (gracilis muscle; [4]): 44.7 ± 3.2 | Ac.carn. (acetyl carnitine) (gracilis muscle; [5]): 16.9 ± 2.6 | Free carnitine (gracilis muscle; [5]): 9.6 ± 2.2 | Lactate (gracilis muscle; [5]): 18.1 ± 4.0 | PCr (phosphocreatine) (gracilis muscle; [5]): 38.9 ± 3.0 | Ac.carn. (acetyl carnitine) (gracilis muscle; Resting muscle): 19.6 ± 1.0 | Free carnitine (gracilis muscle; Resting muscle): 5.4 ± 1.6 | Lactate (gracilis muscle; Resting muscle): 5.7 ± 1.4 | PCr (phosphocreatine) (gracilis muscle; Resting muscle): 55.1 ± 2.5 | Acetyl group availability (gracilis muscle; at rest and during contraction (RF muscle), DCA treated group versus control): higher | effects in patients with class III heart failure [2]: Beneficial effects
